Assay results published in patent US20170326125A1, “MULTISUBSTITUTED AROMATIC COMPOUNDS AS INHIBITORS OF THROMBIN” (VERSEON CORPORATION, priority 2016, published 2017).

Each compound was assayed against T1, Human thrombin (Homo sapiens, UniProt P00734) (assay: Inhibition of the protease activity of thrombin (chromogenic substrate S-2238)). Conditions: Table C; 3 nM thrombin, 125 μM S-2238, 10 min pre-incubation, RT.
T1 construct: purchased Haematologic Technologies Inc
Format: biochemical

IC50 | SMILES
100 to 1000 nM | COc1ccc(CNc2nc(-c3cccnc3)nn2C(=O)c2ccco2)cc1 [Cmpd 340, 1-[(furan-2-yl)carbonyl]-N-[(4-methoxyphenyl)methyl]-3-(pyridin-3-yl)-1H-1,2,4-triazol-5-amine]
100 to 1000 nM | O=C(c1cccnc1)n1nc(-c2ccco2)nc1NCc1ccccc1Cl [Cmpd 397, N-[(2-chlorophenyl)methyl]-3-(furan-2-yl)-1-[(pyridin-3-yl)carbonyl]-1H-1,2,4-triazol-5-amine]
< 100 nM | O=C(CCc1ccccc1)n1nc(-c2ccco2)nc1NCc1ccccc1 [Cmpd 347, 1-[5-(benzylamino)-3-(furan-2-yl)-1H-1,2,4-triazol-1-yl]-3-phenylpropan-1-one]
< 100 nM | COc1ccc(CNc2nc(-c3cccnc3)nn2C(=O)C(C)C)cc1 [Cmpd 318, 1-(5-[(4-methoxyphenyl)methyl]amino-3-(pyridin-3-yl)-1H-1,2,4-triazol-1-yl)-2-methylpropan-1-one]
> 1000 nM | COC(=O)c1nnc(NC(=O)c2ccc(Br)cc2)[nH]1 [Cmpd 383, methyl 5-[(4-bromobenzene)amido]-1H-1,2,4-triazole-3-carboxylate]
> 1000 nM | COc1ccccc1CNc1nc(-c2cccnc2)nn1C(=O)c1cccnc1 [Cmpd 398, N-[(2-methoxyphenyl)methyl]-3-(pyridin-3-yl)-1-[(pyridin-3-yl)carbonyl]-1H-1,2,4-triazol-5-amine]
> 1000 nM | O=S(=O)(c1ccc(Cl)cc1)n1nc(-c2cccnc2)nc1NCc1cccs1 [Cmpd 336, 1-[(4-chlorobenzene)sulfonyl]-3-(pyridin-3-yl)-N-(thiophen-2-ylmethyl)-1H-1,2,4-triazol-5-amine]
> 1000 nM | Nc1n[nH]c(-c2ccccn2)n1 [Cmpd 2, 3-(pyridin-2-yl)-1H-1,2,4-triazol-5-amine]
< 100 nM | COc1ccccc1C(=O)n1nc(-c2ccco2)nc1SC [Cmpd 367, 3-(furan-2-yl)-1-[(2-methoxyphenyl)carbonyl]-5-(methylsulfanyl)-1H-1,2,4-triazole]
> 1000 nM | COC(=O)c1nc(NC(=O)c2ccc(Cl)cc2Cl)n[nH]1 [Cmpd 377, methyl 3-[(2,4-dichlorobenzene)amido]-1H-1,2,4-triazole-5-carboxylate]
> 1000 nM | CCOc1ccc(NC(=O)c2nc(-n3cnnc3)n[nH]2)cc1 [Cmpd 393, N-(4-ethoxyphenyl)-3-(4H-1,2,4-triazol-4-yl)-1H-1,2,4-triazole-5-carboxamide]
100 to 1000 nM | CCC(=O)n1nc(-c2cccnc2)nc1NCc1ccco1 [Cmpd 364, 1-5-[(furan-2-ylmethyl)amino]-3-(pyridin-3-yl)-1H-1,2,4-triazol-1-ylpropan-1-one]
> 1000 nM | CCS(=O)(=O)n1nc(C(=O)N2CCOCC2)nc1N [Cmpd 329, 1-(ethanesulfonyl)-3-[(morpholin-4-yl)carbonyl]-1H-1,2,4-triazol-5-amine]

Same assay, conditions: inhibition of the protease activity of thrombin

SMILES | IC50
O=C(c1ccco1)n1nc(-c2ccncc2)nc1NCc1ccc(F)cc1 [Cmpd 211, N-[(4-fluorophenyl)methyl]-1-[(furan-2-yl)carbonyl]-3-(pyridin-4-yl)-1H-1,2,4-triazol-5-amine] | < 100 nM
CCc1ccccc1C(=O)n1nc(-c2ccccn2)cc1NCc1ccccc1 [Cmpd 247, N-benzyl-1-[(2-ethylphenyl)carbonyl]-3-(pyridin-2-yl)-1H-pyrazol-5-amine] | > 1000 nM
O=C(c1ccccc1F)n1nc(-c2ccccn2)cc1NCc1ccccc1 [Cmpd 251, N-benzyl-1-[(2-fluorophenyl)carbonyl]-3-(pyridin-2-yl)-1H-pyrazol-5-amine] | < 100 nM
COc1ccc(CNc2nc(-c3ccccn3)nn2C(=O)c2ccsc2)cc1 [Cmpd 227, N-[(4-methoxyphenyl)methyl]-3-(pyridin-2-yl)-1-[(thiophen-3-yl)carbonyl]-1H-1,2,4-triazol-5-amine] | 100 to 1000 nM
COc1ccccc1C(=O)n1nc(-c2ccccn2)cc1NCc1ccoc1 [Cmpd 202, N-(furan-3-ylmethyl)-1-[(2-methoxyphenyl)carbonyl]-3-(pyridin-2-yl)-1H-pyrazol-5-amine] | 100 to 1000 nM
O=C(c1c(F)cccc1F)n1nc(-c2ccccn2)nc1NCc1ccccc1 [Cmpd 239, N-benzyl-1-[(2,6-difluorophenyl)carbonyl]-3-(pyridin-2-yl)-1H-1,2,4-triazol-5-amine] | 100 to 1000 nM

Continued, values first:

IC50 | SMILES
< 100 nM | O=C(c1cccs1)n1nc(-c2ccccn2)nc1NCc1ccccc1 [Cmpd 282, N-benzyl-3-(pyridin-2-yl)-1-[(thiophen-2-yl)carbonyl]-1H-1,2,4-triazol-5-amine]
< 100 nM | O=C(c1ccc(Cl)cc1)n1nc(-c2ccccn2)nc1NCc1ccccc1 [Cmpd 262, N-benzyl-1-[(4-chlorophenyl)carbonyl]-3-(pyridin-2-yl)-1H-1,2,4-triazol-5-amine]
< 100 nM | COc1ccccc1C(=O)n1nc(-c2cccs2)nc1NCc1ccccc1 [Cmpd 258, N-benzyl-1-[(2-methoxyphenyl)carbonyl]-3-(thiophen-2-yl)-1H-1,2,4-triazol-5-amine]
> 1000 nM | CN(C)c1ccccc1C(=O)n1nc(-c2ccccn2)nc1NCc1ccccc1 [Cmpd 273, N-benzyl-1-[2-(dimethylamino)phenyl]carbonyl-3-(pyridin-2-yl)-1H-1,2,4-triazol-5-amine]
< 100 nM | O=C(c1ccsc1)n1nc(-c2ccccn2)nc1NCc1ccccc1 [Cmpd 283, N-benzyl-3-(pyridin-2-yl)-1-[(thiophen-3-yl)carbonyl]-1H-1,2,4-triazol-5-amine]

Same assay, conditions: inhibition of the protease activity of thrombin; class symbols a/b/c

IC50 | SMILES
> 1000 nM | CCOC(=O)c1cc(-c2ccccn2)n(CCc2ccc(F)cc2)n1 [Cmpd 57]
> 1000 nM | CCC(=O)n1nc(-c2cccs2)nc1SC [Cmpd 154, 1-[5-(methylsulfanyl)-3-(thiophen-2-yl)-1H-1,2,4-triazol-1-yl]propan-1-one]
< 100 nM | COc1ccc(CNc2nc(-c3ccccn3)nn2C(=O)Cc2ccccc2)cc1 [Cmpd 89, 1-(5-[(4-methoxyphenyl)methyl]amino-3-(pyridin-2-yl)-1H-1,2,4-triazol-1-yl)-2-phenylethan-1-one]
< 100 nM | CC(C)(C)C(=O)n1nc(-c2ccco2)nc1NCc1ccccc1 [Cmpd 136, 1-[5-(benzylamino)-3-(furan-2-yl)-1H-1,2,4-triazol-1-yl]-2,2-dimethylpropan-1-one]
> 1000 nM | COc1ccc(CNc2nc(-c3ccncc3)nn2C(=O)c2ccccc2)cc1 [Cmpd 158, 1-benzoyl-N-[(4-methoxyphenyl)methyl]-3-(pyridin-4-yl)-1H-1,2,4-triazol-5-amine]
< 100 nM | O=C(c1ccccc1)n1nc(-c2ccncc2)nc1NCc1ccccc1 [Cmpd 160, 1-benzoyl-N-benzyl-3-(pyridin-4-yl)-1H-1,2,4-triazol-5-amine]
100 to 1000 nM | COc1ccc(CNc2nc(-c3ccncc3)nn2C(=O)c2ccco2)cc1 [Cmpd 124, 1-[(furan-2-yl)carbonyl]-N-[(4-methoxyphenyl)methyl]-3-(pyridin-4-yl)-1H-1,2,4-triazol-5-amine]
> 1000 nM | O=C(c1cc(-c2ccccn2)n(CCc2ccc(F)cc2)n1)N1CCCCC1 [Cmpd 59]
< 100 nM | COc1ccccc1C(=O)n1nc(-c2cncnc2)nc1NCc1ccccc1 [Cmpd 34]
> 1000 nM | CN(C)C(=O)c1cc(-c2ccccn2)n(CCc2ccc(F)cc2)n1 [Cmpd 129, 1-[2-(4-fluorophenyl)ethyl]-N,N-dimethyl-5-(pyridin-2-yl)-1H-pyrazole-3-carboxamide]
< 100 nM | CCCC(=O)n1nc(-c2ccncc2)nc1NCc1ccc(OC)cc1 [Cmpd 99, 1-(5-[(4-methoxyphenyl)methyl]amino-3-(pyridin-4-yl)-1H-1,2,4-triazol-1-yl)butan-1-one]
> 1000 nM | O=C(Nc1cc(-c2ccccn2)nn1-c1ccccc1Cl)c1ccc(F)cc1 [Cmpd 43]
100 to 1000 nM | O=C(c1ccc(Cl)cc1)n1nc(-c2ccncc2)nc1NCc1ccc(F)cc1 [Cmpd 122, 1-[(4-chlorophenyl)carbonyl]-N-[(4-fluorophenyl)methyl]-3-(pyridin-4-yl)-1H-1,2,4-triazol-5-amine]
< 100 nM | CC(C)CC(=O)n1nc(-c2ccncc2)nc1NCc1ccccc1 [Cmpd 148, 1-[5-(benzylamino)-3-(pyridin-4-yl)-1H-1,2,4-triazol-1-yl]-3-methylbutan-1-one]
100 to 1000 nM | CCC(=O)n1nc(-c2cccc(F)c2)nc1NCc1ccccc1 [Cmpd 135, 1-[5-(benzylamino)-3-(3-fluorophenyl)-1H-1,2,4-triazol-1-yl]propan-1-one]
> 1000 nM | CCC(=O)n1nc(-c2cccnc2)nc1SC [Cmpd 153, 1-[5-(methylsulfanyl)-3-(pyridin-3-yl)-1H-1,2,4-triazol-1-yl]propan-1-one]
100 to 1000 nM | Cc1ccc(C(=O)n2nc(-c3ccccn3)cc2NCc2ccccc2)c(N)c1 [Cmpd 108, 1-[(2-amino-4-methylphenyl)carbonyl]-N-benzyl-3-(pyridin-2-yl)-1H-pyrazol-5-amine]
< 100 nM | O=C(c1ccccc1)n1nc(-c2ccncc2)nc1NCc1ccc(F)cc1 [Cmpd 14]
> 1000 nM | CN(C)C(=O)c1cc(-c2ccccn2)nn1CCc1ccc(F)cc1 [Cmpd 128, 1-[2-(4-fluorophenyl)ethyl]-N,N-dimethyl-3-(pyridin-2-yl)-1H-pyrazole-5-carboxamide]
< 100 nM | CC(C)CC(=O)n1nc(-c2ccccn2)nc1NCc1ccc(F)cc1 [Cmpd 67, 1-(5-[(4-fluorophenyl)methyl]amino-3-(pyridin-2-yl)-1H-1,2,4-triazol-1-yl)-3-methylbutan-1-one]
> 1000 nM | COc1ccccc1C(=O)n1nc(-c2ccccn2)nc1NCc1cc2ccccc2s1 [Cmpd 198, N-(1-benzothiophen-2-ylmethyl)-1-[(2-methoxyphenyl)carbonyl]-3-(pyridin-2-yl)-1H-1,2,4-triazol-5-amine]
> 1000 nM | COC(=O)c1n[nH]c(NC(=O)c2ccc(C)cc2)n1 [Cmpd 196, methyl 5-[(4-methylbenzene)amido]-1H-1,2,4-triazole-3-carboxylate]
< 100 nM | CCC(=O)n1nc(-c2ccco2)nc1NCc1ccc(F)cc1 [Cmpd 63, 1-(5-[(4-fluorophenyl)methyl]amino-3-(furan-2-yl)-1H-1,2,4-triazol-1-yl)propan-1-one]
